In paper PMC7801734, “Discovery of a new molecule inducing melanoma cell death: dual AMPK/MELK targeting for novel melanoma therapies” (Cell Death & Disease, 2021):

Columns and labels:
Format in all cases: biochemical
MAPKAPK2 = MAPKAPK2 (Homo sapiens, UniProt P49137); assay: Z'-LYTE kinome assay at […] (ATP Km app), n = […]; details: read-out: CRO15 1 μM
[1] = molecular target: T1, MELK (maternal embryonic leucine zipper kinase) (Homo sapiens, UniProt Q14680); assay: Z'-LYTE kinome assay at […] (ATP Km app); ADP-Glo dose-response with recombinant MELK; supported by biotin-CRO15 pull-down
T1 construct: recombinant MELK protein
T1 sequence (Q14680 whole entry): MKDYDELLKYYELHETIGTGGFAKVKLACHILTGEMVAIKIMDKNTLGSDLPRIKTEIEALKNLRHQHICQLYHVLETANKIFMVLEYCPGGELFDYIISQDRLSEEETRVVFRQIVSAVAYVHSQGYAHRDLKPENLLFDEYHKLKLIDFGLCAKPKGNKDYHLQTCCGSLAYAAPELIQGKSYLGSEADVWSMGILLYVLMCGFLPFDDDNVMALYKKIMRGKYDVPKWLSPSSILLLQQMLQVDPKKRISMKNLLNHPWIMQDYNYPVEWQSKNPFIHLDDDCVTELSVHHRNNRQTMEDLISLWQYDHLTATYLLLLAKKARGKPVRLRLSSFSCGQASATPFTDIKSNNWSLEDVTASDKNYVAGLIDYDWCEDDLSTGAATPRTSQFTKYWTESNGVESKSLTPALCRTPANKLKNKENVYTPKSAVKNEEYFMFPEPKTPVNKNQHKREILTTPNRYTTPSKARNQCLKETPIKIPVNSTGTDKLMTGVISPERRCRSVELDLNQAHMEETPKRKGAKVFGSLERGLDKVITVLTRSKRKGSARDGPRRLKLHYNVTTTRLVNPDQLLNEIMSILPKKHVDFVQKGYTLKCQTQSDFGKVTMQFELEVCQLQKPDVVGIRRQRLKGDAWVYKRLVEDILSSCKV

AKT2 (PKB beta) = AKT2 (PKB beta) (Homo sapiens, UniProt P31751); assay: Z'-LYTE kinome assay at […], n = […]; details: read-out: CRO15 1 μM
AKT2 (PKB beta), sequence (P31751 whole entry): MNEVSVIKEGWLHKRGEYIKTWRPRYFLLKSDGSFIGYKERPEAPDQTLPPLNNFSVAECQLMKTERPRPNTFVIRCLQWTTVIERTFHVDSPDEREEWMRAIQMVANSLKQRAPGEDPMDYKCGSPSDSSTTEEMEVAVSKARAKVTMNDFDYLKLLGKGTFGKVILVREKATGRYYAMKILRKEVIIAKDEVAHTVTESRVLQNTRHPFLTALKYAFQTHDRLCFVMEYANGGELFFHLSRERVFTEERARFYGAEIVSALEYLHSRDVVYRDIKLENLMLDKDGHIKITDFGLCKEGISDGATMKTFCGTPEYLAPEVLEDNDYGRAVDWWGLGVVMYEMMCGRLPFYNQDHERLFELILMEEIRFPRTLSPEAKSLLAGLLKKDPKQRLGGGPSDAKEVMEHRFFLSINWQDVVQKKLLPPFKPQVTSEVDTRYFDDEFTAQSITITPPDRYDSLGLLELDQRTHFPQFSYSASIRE

GSK3B (GSK3 beta) = GSK3B (GSK3 beta) (Homo sapiens, UniProt P49841); assay: Z'-LYTE kinome assay at […] (ATP Km app), n = […]; details: read-out: CRO15 1 μM
GSK3B (GSK3 beta), sequence (P49841 whole entry): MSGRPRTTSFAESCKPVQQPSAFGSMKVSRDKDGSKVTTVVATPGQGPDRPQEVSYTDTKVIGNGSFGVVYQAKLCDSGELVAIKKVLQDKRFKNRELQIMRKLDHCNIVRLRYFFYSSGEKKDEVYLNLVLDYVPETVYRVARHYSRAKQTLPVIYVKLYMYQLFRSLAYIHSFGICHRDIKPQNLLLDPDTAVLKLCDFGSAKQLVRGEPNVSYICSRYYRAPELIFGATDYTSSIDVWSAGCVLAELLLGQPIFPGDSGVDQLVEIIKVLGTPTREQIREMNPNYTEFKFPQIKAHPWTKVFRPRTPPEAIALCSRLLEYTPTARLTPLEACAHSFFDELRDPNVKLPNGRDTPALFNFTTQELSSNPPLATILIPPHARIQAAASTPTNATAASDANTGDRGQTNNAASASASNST

MAPKAPK2, sequence (P49137 whole entry): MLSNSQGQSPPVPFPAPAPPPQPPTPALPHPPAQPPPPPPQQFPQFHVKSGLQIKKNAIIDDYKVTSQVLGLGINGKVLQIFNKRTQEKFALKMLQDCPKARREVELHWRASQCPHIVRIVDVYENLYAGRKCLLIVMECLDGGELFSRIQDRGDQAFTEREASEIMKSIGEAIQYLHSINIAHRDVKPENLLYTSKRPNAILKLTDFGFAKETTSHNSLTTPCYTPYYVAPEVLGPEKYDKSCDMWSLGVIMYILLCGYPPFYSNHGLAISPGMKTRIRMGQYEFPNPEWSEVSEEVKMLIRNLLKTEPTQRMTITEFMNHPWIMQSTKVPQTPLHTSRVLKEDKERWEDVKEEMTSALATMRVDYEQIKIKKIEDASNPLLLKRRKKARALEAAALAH

inhibition at 1 µM (MAPKAPK2): 90%
inhibition at 1 µM [1]: 72%
inhibition at 1 µM (AKT2 (PKB beta)): 74%
inhibition at 1 µM (GSK3B (GSK3 beta)): 72%
SMILES: Nc1nc(Nc2ccccc2SSc2ccccc2Nc2nc(N)nc(C(Cl)(Cl)Cl)n2)nc(C(Cl)(Cl)Cl)n1 [CRO15]
